“And” between values parts separate entries of the source, which are not always exact repeats. Equal entries are not always repeated.
How the values were obtained:
[1] = target: T1, porcine cortical p5-HT2 serotonin receptor (Sus scrofa, UniProt P50129); assay: Receptor binding assay, [3H]ketanserin competition, porcine cortical membranes
T1 construct: membrane homogenates prepared from porcine striatal or cortical tissue; from tissue; host or cells: porcine cortex

[2] = target: T2, human dopamine receptor subtype hD2long (Homo sapiens, UniProt P14416); assay: Receptor binding assay, [3H]spiperone competition, CHO cell membranes
T2 construct: expressed in transfected cells; host or cells: CHO
T2 sequence (P14416 whole entry): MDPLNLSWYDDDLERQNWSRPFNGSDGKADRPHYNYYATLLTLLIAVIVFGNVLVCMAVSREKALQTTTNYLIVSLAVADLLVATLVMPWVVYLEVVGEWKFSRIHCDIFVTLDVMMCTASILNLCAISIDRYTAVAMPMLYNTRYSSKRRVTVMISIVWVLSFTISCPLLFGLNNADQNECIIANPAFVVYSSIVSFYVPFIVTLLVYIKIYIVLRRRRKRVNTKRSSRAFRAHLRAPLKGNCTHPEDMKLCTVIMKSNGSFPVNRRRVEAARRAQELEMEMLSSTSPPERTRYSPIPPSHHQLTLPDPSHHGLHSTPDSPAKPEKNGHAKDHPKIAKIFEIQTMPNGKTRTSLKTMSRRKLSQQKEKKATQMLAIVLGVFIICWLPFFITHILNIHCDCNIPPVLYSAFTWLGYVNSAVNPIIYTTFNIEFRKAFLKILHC
Description: (§1) Receptor binding data were determined when performing competition binding assays with membrane preparations of cloned cells (stably transfected Chinese Hamster Ovary cells (CHO)) expressing the human receptors and the following radioligands: [^3H]spiperone at the human dopamine receptor subtypes hD2long, hD2short, D3, and hD4.4.
(§2) Selectivity ratios were calculated by division of the Ki values of the various compounds at the respective receptors through the Ki values at the 5HT1a receptor.

[3] = target: T3, human dopamine receptor subtype hD2short (Homo sapiens, UniProt P14416); assay: as above
T3 construct: expressed in transfected cells; host or cells: CHO
T3 sequence (P14416 1-414 isoform P14416-2): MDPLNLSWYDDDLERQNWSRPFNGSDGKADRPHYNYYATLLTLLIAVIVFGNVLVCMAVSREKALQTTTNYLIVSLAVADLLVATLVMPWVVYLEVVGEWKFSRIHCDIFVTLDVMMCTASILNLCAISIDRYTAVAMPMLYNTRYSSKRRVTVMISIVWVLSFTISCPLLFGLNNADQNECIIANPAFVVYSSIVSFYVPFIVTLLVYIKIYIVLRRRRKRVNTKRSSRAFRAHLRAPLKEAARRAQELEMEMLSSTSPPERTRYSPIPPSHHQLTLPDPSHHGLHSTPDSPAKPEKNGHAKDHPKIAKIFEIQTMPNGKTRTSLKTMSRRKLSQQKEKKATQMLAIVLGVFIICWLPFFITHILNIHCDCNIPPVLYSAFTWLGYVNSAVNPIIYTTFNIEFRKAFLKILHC
Description: as §1, §2

[4] = target: T4, human dopamine receptor subtype hD3 (Homo sapiens, UniProt P35462); assay: as above
T4 construct: expressed in transfected cells; host or cells: CHO
T4 sequence (P35462 whole entry): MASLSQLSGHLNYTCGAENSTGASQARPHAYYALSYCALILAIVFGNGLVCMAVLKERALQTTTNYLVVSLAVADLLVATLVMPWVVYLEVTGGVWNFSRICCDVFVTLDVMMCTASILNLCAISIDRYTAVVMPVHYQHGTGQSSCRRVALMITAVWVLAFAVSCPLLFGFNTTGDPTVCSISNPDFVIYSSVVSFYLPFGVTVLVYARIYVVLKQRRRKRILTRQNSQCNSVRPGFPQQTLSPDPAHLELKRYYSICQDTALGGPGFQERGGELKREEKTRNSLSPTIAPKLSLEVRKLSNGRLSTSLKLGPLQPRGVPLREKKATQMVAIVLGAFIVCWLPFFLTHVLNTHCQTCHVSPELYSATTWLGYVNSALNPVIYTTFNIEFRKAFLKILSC
Description: as §1, §2

[5] = target: T5, human dopamine receptor subtype hD4.4 (Homo sapiens, UniProt P21917); assay: as above
T5 construct: expressed in transfected cells; host or cells: CHO
T5 sequence (P21917 1-419): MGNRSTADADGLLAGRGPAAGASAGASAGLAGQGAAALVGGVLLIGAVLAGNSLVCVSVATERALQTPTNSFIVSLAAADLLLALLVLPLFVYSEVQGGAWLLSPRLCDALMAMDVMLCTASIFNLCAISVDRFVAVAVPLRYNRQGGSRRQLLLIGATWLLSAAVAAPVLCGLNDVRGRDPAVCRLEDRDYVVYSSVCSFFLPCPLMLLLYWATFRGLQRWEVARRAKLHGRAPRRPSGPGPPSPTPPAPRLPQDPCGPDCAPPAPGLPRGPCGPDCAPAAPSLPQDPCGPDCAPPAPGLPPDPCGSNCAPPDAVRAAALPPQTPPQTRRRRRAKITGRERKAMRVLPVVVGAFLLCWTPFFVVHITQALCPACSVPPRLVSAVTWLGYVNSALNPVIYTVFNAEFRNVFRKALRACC
Description: as §1, with “hD4.4. […].” for “hD4.4.”
as §2

[6] = target: porcine cortical pα2 adrenergic receptor; assay: Receptor binding assay, [3H]RX821002 competition, porcine cortical membranes; details: means of 2-8 individual experiments each done as triplicate
[7] = target: T6, human 5-HT1a receptor (Homo sapiens, UniProt P08908); assay: [35S]GTPγS functional assay; type: biochemical
T6 construct: expressed in transfected cells
T6 sequence (P08908 1-422): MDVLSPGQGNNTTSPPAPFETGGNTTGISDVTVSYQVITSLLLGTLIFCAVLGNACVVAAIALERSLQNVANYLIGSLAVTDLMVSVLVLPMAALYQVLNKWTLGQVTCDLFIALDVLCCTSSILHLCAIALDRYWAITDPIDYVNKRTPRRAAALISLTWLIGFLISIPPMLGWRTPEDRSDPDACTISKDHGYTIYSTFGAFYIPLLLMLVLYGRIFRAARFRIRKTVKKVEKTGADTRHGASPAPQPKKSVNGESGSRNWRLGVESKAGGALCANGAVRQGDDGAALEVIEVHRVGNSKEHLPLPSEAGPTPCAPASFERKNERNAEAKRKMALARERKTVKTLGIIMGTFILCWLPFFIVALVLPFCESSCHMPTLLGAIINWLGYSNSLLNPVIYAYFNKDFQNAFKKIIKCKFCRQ
Description: Specific binding of [^35S]GTPγS is stimulated by activation of the stably expressed human 5-HT1a receptor in a dose-dependent way by agonists for this GPCR and is determined by measuring the radioactive label of the membrane. Non-linear regression analysis of the resulting dose-response curves yields the EC50 value in [nM] representing the half maximal concentration which is necessary to activate the receptor completely.

[8] = test system: formalin-induced hind paw licking in CD-1 mice; assay: Animal pain test (formalin assay); type: in vivo; details: for % Inhibition of hind paw licking time: vs vehicle
Description: The formalin test is being widely accepted as a valid basic model of persistent clinical pain, and may indicate a compound's efficacy in neuropathic and/or inflammatory pain conditions.
Compound 1 and a comparator (gabapentin 100 mg/kg) were administered to groups of 5 or 10 CD-1 (Crl.) derived male mice weighing 24±2 g. Test substances and vehicle (0.2% HPMC/0.9% NaCl) were each administered by intraperitoneal injection (gabapentin) or oral gavage (compound 1) 15 or 30 minutes before subplantar injection of formalin (0.02 ml, 2% solution). Reduction of the formalin-induced hind paw licking time recorded at 5-minute interval during the following 0- to 35-minute after formalin injection by 50 percent or more (≧50%) indicated significant analgesic activity. Also, statistical analysis was performed by using one-way ANOVA followed by Dunnett's test to compare the test compound-treated and vehicle control groups. Significance is considered at P<0.05 level. Acute toxic symptoms and autonomic effects were observed after the administration of test compounds.

[9] = means of 2-8 individual experiments each done as triplicate
[10] = 5 mg/kg oral, interval 0-5 minutes
[11] = 5 mg/kg oral, interval 5-10 minutes
[12] = 5 mg/kg oral, interval 10-15 minutes
[13] = 5 mg/kg oral, interval 15-20 minutes
[14] = 5 mg/kg oral, interval 20-25 minutes
[15] = 5 mg/kg oral, interval 25-30 minutes
[16] = 5 mg/kg oral, interval 30-35 minutes
[17] = 10 mg/kg oral, interval 0-5 minutes
[18] = 10 mg/kg oral, interval 5-10 minutes
[19] = 10 mg/kg oral, interval 20-25 minutes
[20] = 10 mg/kg oral, interval 25-30 minutes
[21] = 10 mg/kg oral, interval 30-35 minutes

T1 sequence (P50129 whole entry): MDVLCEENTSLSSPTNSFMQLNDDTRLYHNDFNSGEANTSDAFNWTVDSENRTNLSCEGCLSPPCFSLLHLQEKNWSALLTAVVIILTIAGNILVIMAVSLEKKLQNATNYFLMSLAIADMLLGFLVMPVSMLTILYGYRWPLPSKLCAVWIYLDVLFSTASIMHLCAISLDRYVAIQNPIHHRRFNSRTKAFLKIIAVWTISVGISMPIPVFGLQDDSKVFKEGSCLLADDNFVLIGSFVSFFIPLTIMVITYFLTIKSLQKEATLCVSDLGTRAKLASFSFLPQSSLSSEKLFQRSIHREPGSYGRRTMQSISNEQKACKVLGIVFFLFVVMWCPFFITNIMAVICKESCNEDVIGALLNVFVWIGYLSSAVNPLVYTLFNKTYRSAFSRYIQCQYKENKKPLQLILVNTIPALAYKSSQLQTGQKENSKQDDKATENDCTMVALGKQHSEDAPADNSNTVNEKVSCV

CCCN(CCc1cccs1)C1CCc2cccc(O)c2C1 (centres unmarked) [Compound 1, N-(8-Hydroxytetralin-2-yl)-N-propyl-N-[2-(2-thienyl)ethyl]amine]
Ki [1, 9]: 3600 nM
selectivity ratio p5-HT2 ([1]; vs p5-HT1a): 4 900
Ki [2, 9]: 260 nM
selectivity ratio hD2long ([2]; vs p5-HT1a): 360
Ki [3, 9]: 260 nM
selectivity ratio hD2short ([3]; vs p5-HT1a): 360
Ki [4, 9]: 190 nM
selectivity ratio hD3 ([4]; vs p5-HT1a): 260
Ki [5, 9]: 190 nM
selectivity ratio hD4.4 ([5]; vs p5-HT1a): 260
Ki [6]: 68 nM
agonist activity at the human 5-HT1a receptor ([7]; in words): full agonist activity
EC50 ([7]; mean values of 2-8 individual experiments): 0.65 to 1.9 nM and 1.9 nM
Emax ([7]; read-out: intrinsic activity [% rel. to serotonin]): 103%
analgesic effect ([8]; 1 mg/kg oral administration): no analgesic effect
analgesic effect ([8]; 3 mg/kg oral administration): some effect
Hind Paw Licking Times [8, 10]: 63.4 ± 7.2 s
% Inhibition of hind paw licking time [8, 10]: (18%)
Hind Paw Licking Times [8, 11]: 10.2 ± 3.9 s
% Inhibition of hind paw licking time [8, 11]: (0%)
Hind Paw Licking Times [8, 12]: 25.1 ± 11.6 s
% Inhibition of hind paw licking time [8, 12]: (54%)
Hind Paw Licking Times [8, 13]: 56.7 ± 18 s
% Inhibition of hind paw licking time [8, 13]: (44%)
Hind Paw Licking Times [8, 14]: 54.7 ± 9.4 s
% Inhibition of hind paw licking time [8, 14]: (12%)
Hind Paw Licking Times [8, 15]: 54.7 ± 15.1 s
% Inhibition of hind paw licking time [8, 15]: (0%)
Hind Paw Licking Times [8, 16]: 24.7 ± 9.8 s
% Inhibition of hind paw licking time [8, 16]: (0%)
analgesic effect ([8]; 10 mg/kg oral administration, 10-20 minutes period): significant analgesic effect
Hind Paw Licking Times [8, 17]: 64.3 ± 7.3 s
% Inhibition of hind paw licking time [8, 17]: (16%)
Hind Paw Licking Times [8, 18]: 0 ± 0 s
% Inhibition of hind paw licking time [8, 18]: (100%)
% Inhibition of hind paw licking time ([8]; 10 mg/kg oral, interval 10-15 minutes): (96%)
% Inhibition of hind paw licking time ([8]; 10 mg/kg oral, interval 15-20 minutes): (69%)
Hind Paw Licking Times [8, 19]: 37.5 ± 13.6 s
% Inhibition of hind paw licking time [8, 19]: (40%)
Hind Paw Licking Times [8, 20]: 29.9 ± 12.7 s
% Inhibition of hind paw licking time [8, 20]: (0%)
Hind Paw Licking Times [8, 21]: 12.8 ± 8.8 s
% Inhibition of hind paw licking time [8, 21]: (10%)
activity in an oral animal model of pain ([8]; oral): active

— patent publication US8586603B2, “Aminotetraline derivatives” (priority 2009, dated 2013)
